Source: patent US20240158446A1, “CYCLIC COMPOUND HAVING SELECTIVE INHIBITORY ACTION ON KRAS OVER HRAS AND NRAS” (CHUGAI SEIYAKU KABUSHIKI KAISHA, priority 2021, published 2024)
*1 amine or outer side, *2 acyl side, *3 side chain or, on linkers, in order; H or OH if unused. Where a SMILES comes first, the peptide text is derived from it. Bridges are numbered along the chain shown (N, C = ends). [ ]: non-standard residue; d: D form. The star is where a group is joined. hPhe(3-Cl-4-CF3) = N[C@@H](CCc1ccc(C(F)(F)F)c(Cl)c1)C(=O)O; NPrPhe(4-CF3) = CCCN[C@@H](Cc1ccc(C(F)(F)F)cc1)C(=O)O; NEtAsp = CCN([C@@H](CC(=O)[*:3])C(=O)[*:2])[*:1]; NMeGly(cPent) = CN[C@H](C(=O)O)C1CCCC1; Ac4c(3,3-Me2) = CC1(C)CC(N)(C(=O)O)C1; NMeD = CN[C@@H](CC(=O)O)C(=O)O; NMeL = CN[C@@H](CC(C)C)C(=O)O; Morpholide = C1CN(*)CCO1; Ac4c = NC1(C(=O)O)CCC1; Sar = CNCC(=O)O

What was measured:
[1] = target: GDP-bound KRAS wild-type protein (Homo sapiens, UniProt P01116); test: Binding to KRAS by surface plasmon resonance (SPR), Single Cycle Kinetics; settings: SPR, Single Cycle Kinetics, GDP-bound KRAS wild-type protein; read-out: KRAS KD
GDP-bound KRAS wild-type protein, sequence (P01116 whole entry): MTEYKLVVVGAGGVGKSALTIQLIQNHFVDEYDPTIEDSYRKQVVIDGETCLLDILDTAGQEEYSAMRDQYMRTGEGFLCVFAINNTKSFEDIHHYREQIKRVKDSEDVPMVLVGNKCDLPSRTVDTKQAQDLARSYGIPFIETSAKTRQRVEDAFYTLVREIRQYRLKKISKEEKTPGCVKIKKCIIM

[2] = target: GDP-bound NRAS wild-type protein (Homo sapiens, UniProt P01111); test: Binding to NRAS by surface plasmon resonance (SPR), Single Cycle Kinetics; settings: ratio of KD for GDP-bound NRAS wild-type protein to KD for KRAS, SPR
GDP-bound NRAS wild-type protein, sequence (P01111 whole entry): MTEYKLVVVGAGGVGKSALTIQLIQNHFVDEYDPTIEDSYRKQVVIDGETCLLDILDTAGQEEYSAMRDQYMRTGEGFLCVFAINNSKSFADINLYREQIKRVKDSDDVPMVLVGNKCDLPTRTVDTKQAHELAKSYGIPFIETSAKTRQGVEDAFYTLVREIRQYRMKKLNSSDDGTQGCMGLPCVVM

[3] = target: GDP-bound HRAS wild-type protein (Homo sapiens, UniProt P01112); test: Binding to HRAS by surface plasmon resonance (SPR), Single Cycle Kinetics; settings: ratio of KD for GDP-bound HRAS wild-type protein to KD for KRAS, SPR
GDP-bound HRAS wild-type protein, sequence (P01112 whole entry): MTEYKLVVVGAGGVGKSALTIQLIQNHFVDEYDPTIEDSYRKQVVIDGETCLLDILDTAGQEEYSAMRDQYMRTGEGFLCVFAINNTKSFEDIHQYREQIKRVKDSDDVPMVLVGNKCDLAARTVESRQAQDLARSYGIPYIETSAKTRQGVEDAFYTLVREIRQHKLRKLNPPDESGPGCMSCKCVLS

[4] = test system: human lung cancer strain NCI-H441; test: cells; settings: NCI-H441, 96 h, read-out: NCI-H441 IC50 (nM), NCI-H441 cell proliferation, 4 days, CellTiter-Glo;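 note: cell proliferation inhibition after four days measured by CellTiter-Glo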

Structure (SMILES)	Kd [1] [nM]	NRAS/KRAS (KD ratio) [2]	HRAS/KRAS (KD ratio) [3]	IC50 [4] [nM]
CC[C@H](C)[C@@H]1NC(=O)[C@H](CC(C)C)N(C)C(=O)C[C@@H](C(=O)N(C)CC)N(C)C(=O)[C@H](C2CCCC2)N(C)C(=O)C2(CC(C)(C)C2)NC(=O)[C@@H]2C[C@@H](F)CN2C(=O)[C@H](CCc2cc(F)c(C(F)(F)F)c(F)c2)NC(=O)CN(C)C(=O)[C@H](Cc2ccc(C(F)(F)F)cc2)N2CC/C=C\C[C@@H](C2=O)N(C)C(=O)CN(C)C1=O [PP1694]	0.051	A (a compound having 10 or more and less than 20 is denoted as A)	A (a compound having 10 or more and less than 20 is denoted as A)	4.1
CCCN1C(=O)CN(C)C(=O)CN(C)C(=O)[C@H]([C@@H](C)CC)NC(=O)[C@H](CC(C)C)N(C)C(=O)C[C@@H](C(=O)N(C)C)N(CC)C(=O)[C@H](C2CCCC2)N(C)C(=O)C2(CCC2)NC(=O)[C@@H]2CCCN2C(=O)[C@H](CCc2ccc(C(F)(F)F)c(Cl)c2)NC(=O)CN(C)C(=O)[C@@H]1Cc1ccc(C(F)(F)F)cc1 [PP1956] ([NMeL]I[Sar][Sar][NPrPhe(4-CF3)][Sar][hPhe(3-Cl-4-CF3)]P[Ac4c][NMeGly(cPent)][NEtAsp]-NMe2; lactam N-11)	0.28	B (a compound having 3 or more and less than 10 is denoted as B)	B (a compound having 3 or more and less than 10 is denoted as B)	2.2
CC[C@H](C)[C@@H]1NC(=O)[C@H](CC2CCC2)N(C)C(=O)C[C@@H](C(=O)N(C)C)N(C)C(=O)[C@H](C2CCCC2)N(C)C(=O)C2(CC(C)(C)C2)NC(=O)[C@@H]2C[C@H](C)CN2C(=O)[C@H](CCc2cc(F)c(C(F)(F)F)c(F)c2)NC(=O)CN(C)C(=O)[C@H](Cc2ccc(C(F)(F)F)cc2)N2CC/C=C\C[C@@H](C2=O)N(C)C(=O)CN(C)C1=O [PP1684]	0.15	A (a compound having 10 or more and less than 20 is denoted as A)	A (a compound having 10 or more and less than 20 is denoted as A)	7.7
CCO[C@@H]1C[C@H]2C(=O)NC3(CC(C)(C)C3)C(=O)N(C)[C@@H](C3CCCC3)C(=O)N(C)[C@H](C(=O)N3CCCCC3)CC(=O)N(C)[C@@H](CC)C(=O)N[C@@H]([C@@H](C)CC)C(=O)N(C)CC(=O)N(C)[C@H]3C/C=C\CCN(C3=O)[C@@H](Cc3ccc(C(F)(F)F)cc3)C(=O)N(C)CC(=O)N[C@@H](CCc3cc(F)c(C(F)(F)F)c(F)c3)C(=O)N2C1 [PP1945]	0.31	AA (a compound having 20 or more is denoted as AA)	A (a compound having 10 or more and less than 20 is denoted as A)	33.8
CCCN(C)C(=O)[C@@H]1CC(=O)N(C)[C@@H](CC)C(=O)N[C@@H]([C@@H](C)CC)C(=O)N(C)CC(=O)N(C)[C@H]2C/C=C\CCN(C2=O)[C@@H](Cc2ccc(C(F)(F)F)cc2)C(=O)N(C)CC(=O)N[C@@H](CCc2cc(F)c(C(F)(F)F)c(F)c2)C(=O)N2C[C@H](OCC)C[C@H]2C(=O)NC2(CCC2)C(=O)N(C)[C@@H](C2CCCC2)C(=O)N1C [PP1699]	0.095	A (a compound having 10 or more and less than 20 is denoted as A)	A (a compound having 10 or more and less than 20 is denoted as A)	2.5
CC[C@H](C)[C@@H]1NC(=O)[C@H](CC(C)C)N(C)C(=O)C[C@@H](C(=O)N(C)C)N(C)C(=O)[C@H](C2CCCC2)N(C)C(=O)C2(CCC2)NC(=O)[C@@H]2C[C@@H](C)CN2C(=O)[C@H](CCc2ccc(C(F)(F)F)c(OC)c2)NC(=O)CN(C)C(=O)[C@H](Cc2ccc(C)cc2)N2CC/C=C\C[C@@H](C2=O)N(C)C(=O)CN(C)C1=O [PP1867]	0.17	A (a compound having 10 or more and less than 20 is denoted as A)	B (a compound having 3 or more and less than 10 is denoted as B)	47.8
CCCOC[C@H]1C(=O)N[C@@H]([C@@H](C)CC)C(=O)N(C)CC(=O)N(C)[C@H]2C/C=C\CCN(C2=O)[C@@H](Cc2ccc(C(F)(F)F)cc2)C(=O)N(C)CC(=O)N[C@@H](CCc2cc(F)c(C(F)(F)F)c(F)c2)C(=O)N2C[C@H](OCC)C[C@H]2C(=O)NC2(CC(C)(C)C2)C(=O)N(C)[C@@H](C2CCCC2)C(=O)N(C)[C@H](C(=O)N(C)CCC)CC(=O)N1C [PP1673]	0.16	A (a compound having 10 or more and less than 20 is denoted as A)	A (a compound having 10 or more and less than 20 is denoted as A)	6
CC[C@H](C)[C@@H]1NC(=O)[C@H](CC(F)(F)F)N(C)C(=O)C[C@@H](C(=O)N(C)C)N(C)C(=O)[C@H](C2CCCC2)N(C)C(=O)C2(CC(C)(C)C2)NC(=O)[C@@H]2CCCN2C(=O)[C@H](CCc2cc(F)c(C(F)(F)F)c(F)c2)NC(=O)CN(C)C(=O)[C@H](Cc2ccc(C(F)(F)F)cc2)N2CC/C=C\C[C@@H](C2=O)N(C)C(=O)CN(C)C1=O [PP1722]	0.06	AA (a compound having 20 or more is denoted as AA)	A (a compound having 10 or more and less than 20 is denoted as A)	1.8
CCO[C@@H]1C[C@H]2C(=O)NC3(CC(F)(F)C3)C(=O)N(C)[C@@H](C3CCCC3)C(=O)N3CCC[C@@H]3CC(=O)N(C)[C@@H](CC3CC3)C(=O)N[C@@H]([C@@H](C)CC)C(=O)N(C)CC(=O)N(C)[C@H]3C/C=C\CCN(C3=O)[C@@H](Cc3ccc(C(F)(F)F)cc3)C(=O)N(C)CC(=O)N[C@@H](CCc3cc(F)c(C(F)(F)F)c(F)c3)C(=O)N2C1 [PP1615]	0.45	B (a compound having 3 or more and less than 10 is denoted as B)	B (a compound having 3 or more and less than 10 is denoted as B)	20.9
CCCN1C(=O)CN(C)C(=O)CN(C)C(=O)[C@H]([C@@H](C)OCC)NC(=O)[C@H](CC(C)C)N(C)C(=O)C[C@@H](C(=O)N2CCOCC2)N(C)C(=O)[C@H](C2CCCC2)N(C)C(=O)C2(CC(C)(C)C2)NC(=O)[C@@H]2CCCN2C(=O)[C@H](CCc2ccc(C(F)(F)F)c(Cl)c2)NC(=O)CN(C)C(=O)[C@@H]1Cc1ccc(C(F)(F)F)cc1 [PP1964] ([NMeL]T(Et)[Sar][Sar][NPrPhe(4-CF3)][Sar][hPhe(3-Cl-4-CF3)]P[Ac4c(3,3-Me2)][NMeGly(cPent)][NMeD]-Morpholide; lactam N-11)	0.19	B (a compound having 3 or more and less than 10 is denoted as B)	B (a compound having 3 or more and less than 10 is denoted as B)	10.3
CCO[C@@H]1C[C@H]2C(=O)NC3(CC(C)(C)C3)C(=O)N(C)[C@@H](C3CCCC3)C(=O)N(C)[C@H](C(=O)N(C)C)CC(=O)N(C)[C@@H](CC(F)(F)F)C(=O)N[C@@H]([C@@H](C)CC)C(=O)N(C)CC(=O)N(C)[C@H]3C/C=C\CCN(C3=O)[C@@H](Cc3ccc(C(F)(F)F)cc3)C(=O)N(C)CC(=O)N[C@@H](CCc3ccc(C(F)(F)F)c(OC)c3)C(=O)N2C1 [PP1675]	0.071	A (a compound having 10 or more and less than 20 is denoted as A)	B (a compound having 3 or more and less than 10 is denoted as B)	3
CCC[C@H]1C(=O)N[C@@H]([C@@H](C)CC)C(=O)N(C)CC(=O)N(C)[C@H]2C/C=C\CCN(C2=O)[C@@H](Cc2ccc(C)cc2)C(=O)N(C)CC(=O)N[C@@H](CCc2ccc(C(F)(F)F)c(OC)c2)C(=O)N2C[C@H](OCC)C[C@H]2C(=O)NC2(CC(C)(C)C2)C(=O)N(C)[C@@H](C2CCCC2)C(=O)N(C)[C@H](C(=O)N(C)C)CC(=O)N1C [PP1892]	0.074	A (a compound having 10 or more and less than 20 is denoted as A)	B (a compound having 3 or more and less than 10 is denoted as B)	4.8
CC[C@H](C)[C@@H]1NC(=O)[C@H](CC)N(C)C(=O)C[C@@H](C(=O)N(C)C)N(C)C(=O)[C@H](C2CCCC2)N(C)C(=O)C2(CCC2)NC(=O)[C@@H]2CCCN2C(=O)[C@H](CCc2cc(C)c(Cl)c(C)c2)NC(=O)CN(C)C(=O)[C@H](Cc2ccc(C(F)(F)F)cc2)N2CC/C=C\C[C@@H](C2=O)N(C)C(=O)CN(C)C1=O [PP1822]	1.1	A (a compound having 10 or more and less than 20 is denoted as A)	B (a compound having 3 or more and less than 10 is denoted as B)	107
CCCOC[C@H]1C(=O)N[C@@H]([C@@H](C)CC)C(=O)N(C)CC(=O)N(C)[C@H]2C/C=C\CCN(C2=O)[C@@H](Cc2ccc(C(F)(F)F)cc2)C(=O)N(C)CC(=O)N[C@@H](CCc2ccc(C(F)(F)F)c(OC)c2)C(=O)N2C[C@H](OCC)C[C@H]2C(=O)NC2(CC(C)(C)C2)C(=O)N(C)[C@@H](C2CCCC2)C(=O)N(C)[C@H](C(=O)N(C)C)CC(=O)N1C [PP1657]	0.06	A (a compound having 10 or more and less than 20 is denoted as A)	B (a compound having 3 or more and less than 10 is denoted as B)	2
CCCN(C)C(=O)[C@@H]1CC(=O)N(C)[C@@H](CC(F)F)C(=O)N[C@@H]([C@@H](C)CC)C(=O)N(C)CC(=O)N(C)[C@H]2C/C=C\CCN(C2=O)[C@@H](Cc2ccc(C(F)(F)F)cc2)C(=O)N(C)CC(=O)N[C@@H](CCc2ccc(C(F)(F)F)c(OC)c2)C(=O)N2C[C@@H](C)C[C@H]2C(=O)NC2(CC(C)(C)C2)C(=O)N(C)[C@@H](C2CCCC2)C(=O)N1C [PP1989]	0.19	A (a compound having 10 or more and less than 20 is denoted as A)	A (a compound having 10 or more and less than 20 is denoted as A)	11.1
